Measured values from paper PMC12298351, “Novel 3,19-(N-Phenyl-3-(4-fluorophenyl)-pyrazole) Acetal of Andrographolide Promotes Cell Cycle Arrest and Apoptosis in MDA-MB-231 Breast Cancer Cells” (Pharmaceuticals, 2025).

Tests used:
RPMI-8226 = conditions: RPMI-8226, Leukemia
OVCAR-3 = conditions: OVCAR-3, Ovarian
UACC-62 = conditions: UACC-62, Melanoma
HCT-15 = conditions: HCT-15, Colon
MDA-MB-435 = conditions: MDA-MB-435, Melanoma
HCC-2998 = conditions: HCC-2998, Colon
HCT-116 = type: cell-based; conditions: HCT-116, Colon
RXF 393 = conditions: RXF 393, Renal
SF-539 = conditions: SF-539, CNS
OVCAR-4 = type: cell-based; conditions: OVCAR-4, Ovarian
M14 = type: cell-based; conditions: M14, Melanoma
OVCAR-8 = conditions: OVCAR-8, Ovarian
U251 = conditions: U251, CNS
PC-3 = conditions: PC-3, Prostate
A498 = conditions: A498, Renal
[1] = DPPH radical scavenging assay; conditions: 25 µM test compound, 0.1 mM DPPH, acetonitrile, 30 min
Method in brief: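 Compounds at 25 µM in acetonitrile mixed 1:2 with 0.1 mM DPPH in acetonitrile, kept 30 min in the dark at room temperature. Absorbance read at 517 nm; % scavenging = (Ac − As)/Ac × 100, Ac being DPPH blank. Ascorbic acid positive control.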

TK-10 = type: cell-based; conditions: TK-10, Renal
MOLT-4 = conditions: MOLT-4, Leukemia
SF-295 = conditions: SF-295, CNS
SK-MEL-2 = conditions: SK-MEL-2, Melanoma
[2] = read-out: 50% lethal concentration (LC50)
[3] = read-out: 50% lethal concentration (LC50), Leukemia

## C=C1CCC2C3(C)COC(c4cn(-c5ccccc5)nc4-c4cccc([N+](=O)[O-])c4)OC3CCC2(C)C1CC=C1C(=O)OCC1O (stereo not drawn) [1b]
RPMI-8226
  GI50: 2.45 µM
  Total growth inhibition (TGI): > 100 µM
RPMI-8226; [2]
  CC50: > 100 µM
OVCAR-3
  GI50: 1.87 µM
  Total growth inhibition (TGI): 3.75 µM
OVCAR-3; [2]
  CC50: 7.55 µM
T-47D; Breast
  GI50: 1.76 µM
  Total growth inhibition (TGI): 5.02 µM
T-47D; read-out: 50% lethal concentration (LC50), Breast
  CC50: > 100 µM
HOP-62; HOP-62, Non-Small Cell Lung
  Total growth inhibition (TGI): 12.4 µM
HOP-62; HOP-62, Non-Small-Cell Lung
  GI50: 3.15 µM
HOP-62; read-out: 50% lethal concentration (LC50), HOP-62, Non-Small Cell Lung
  CC50: > 100 µM
UACC-62
  GI50: 1.69 µM
  Total growth inhibition (TGI): 3.46 µM
UACC-62; [2]
  CC50: 7.06 µM
NCI-H23; NCI-H23, Non-Small Cell Lung
  Total growth inhibition (TGI): 3.55 µM
NCI-H23; NCI-H23, Non-Small-Cell Lung
  GI50: 1.83 µM
NCI-H23; read-out: 50% lethal concentration (LC50), NCI-H23, Non-Small Cell Lung
  CC50: 6.87 µM
HCT-15
  GI50: 1.74 µM
  Total growth inhibition (TGI): 3.58 µM
HCT-15; [2]
  CC50: 7.37 µM
MDA-MB-435
  GI50: 3.03 µM
  Total growth inhibition (TGI): 18.3 µM
MDA-MB-435; [2]
  CC50: > 100 µM
HCC-2998
  GI50: 1.92 µM
  Total growth inhibition (TGI): 3.53 µM
HCC-2998; [2]
  CC50: 6.48 µM
HCT-116
  GI50: 1.99 µM
  Total growth inhibition (TGI): 4.25 µM
RXF 393
  GI50: 1.62 µM
  Total growth inhibition (TGI): 3.2 µM
RXF 393; [2]
  CC50: 6.32 µM
SF-539
  GI50: 1.74 µM
  Total growth inhibition (TGI): 3.18 µM
SF-539; [2]
  CC50: 5.79 µM
OVCAR-4
  GI50: 4.05 µM
  Total growth inhibition (TGI): > 100 µM
OVCAR-4; [2]
  CC50: > 100 µM
M14
  GI50: 2.08 µM
  LC50 (50% lethal concentration): 9.85 µM
  Total growth inhibition (TGI): 4.52 µM
OVCAR-8
  GI50: 1.9 µM
  Total growth inhibition (TGI): 5.04 µM
OVCAR-8; [2]
  CC50: > 100 µM
CCRF-CEM; Leukemia
  GI50: 1.14 µM
  Total growth inhibition (TGI): 5.01 µM
CCRF-CEM; [3]
  CC50: > 100 µM
EKVX; Non-Small Cell Lung
  Total growth inhibition (TGI): 7.98 µM
EKVX; Non-Small-Cell Lung
  GI50: 2.75 µM
EKVX; read-out: 50% lethal concentration (LC50), Non-Small Cell Lung
  CC50: > 100 µM
U251
  GI50: 1.74 µM
  Total growth inhibition (TGI): 3.35 µM
U251; [2]
  CC50: 6.46 µM
PC-3
  GI50: 2.75 µM
  Total growth inhibition (TGI): 9.04 µM
PC-3; [2]
  CC50: > 100 µM
A498
  GI50: 1.9 µM
  Total growth inhibition (TGI): 45.4 µM
A498; [2]
  CC50: > 100 µM
NCI-H522; NCI-H522, Non-Small Cell Lung
  Total growth inhibition (TGI): 3.41 µM
NCI-H522; NCI-H522, Non-Small-Cell Lung
  GI50: 1.75 µM
NCI-H522; read-out: 50% lethal concentration (LC50), NCI-H522, Non-Small Cell Lung
  CC50: 6.65 µM
[1]
  % DPPH radical scavenging activity: 60.68%
TK-10
  GI50: 2.22 µM
  Total growth inhibition (TGI): 5.82 µM
TK-10; [2]
  CC50: > 100 µM
MOLT-4
  GI50: 2.87 µM
  Total growth inhibition (TGI): > 100 µM
MOLT-4; [2]
  CC50: > 100 µM
HL-60(TB); Leukemia
  GI50: 1.73 µM
  Total growth inhibition (TGI): > 100 µM
HL-60(TB); [3]
  CC50: > 100 µM
SF-295
  GI50: 1.68 µM
  Total growth inhibition (TGI): 3.19 µM
SF-295; [2]
  CC50: 6.05 µM
SR; Leukemia
  GI50: 3.46 µM
  Total growth inhibition (TGI): > 100 µM
SR; [3]
  CC50: > 100 µM
SK-MEL-2
  GI50: 1.78 µM
  Total growth inhibition (TGI): 3.51 µM
SK-MEL-2; [2]
  CC50: 6.94 µM
